{"source": "patent US6423689B1", "about": "“Peptidyl calcium channel blockers” (Warner-Lambert Company, priority 1997, dated 2002)", "molecular_target": "T1, N-type Ca2+ channels in IMR-32 cells (Homo sapiens, UniProt Q00975)", "T1 construct": "host or cells: IMR-32 cells, differentiated with dibutyryl cAMP and bromodeoxyuridine", "T1 sequence (Q00975 whole entry)": "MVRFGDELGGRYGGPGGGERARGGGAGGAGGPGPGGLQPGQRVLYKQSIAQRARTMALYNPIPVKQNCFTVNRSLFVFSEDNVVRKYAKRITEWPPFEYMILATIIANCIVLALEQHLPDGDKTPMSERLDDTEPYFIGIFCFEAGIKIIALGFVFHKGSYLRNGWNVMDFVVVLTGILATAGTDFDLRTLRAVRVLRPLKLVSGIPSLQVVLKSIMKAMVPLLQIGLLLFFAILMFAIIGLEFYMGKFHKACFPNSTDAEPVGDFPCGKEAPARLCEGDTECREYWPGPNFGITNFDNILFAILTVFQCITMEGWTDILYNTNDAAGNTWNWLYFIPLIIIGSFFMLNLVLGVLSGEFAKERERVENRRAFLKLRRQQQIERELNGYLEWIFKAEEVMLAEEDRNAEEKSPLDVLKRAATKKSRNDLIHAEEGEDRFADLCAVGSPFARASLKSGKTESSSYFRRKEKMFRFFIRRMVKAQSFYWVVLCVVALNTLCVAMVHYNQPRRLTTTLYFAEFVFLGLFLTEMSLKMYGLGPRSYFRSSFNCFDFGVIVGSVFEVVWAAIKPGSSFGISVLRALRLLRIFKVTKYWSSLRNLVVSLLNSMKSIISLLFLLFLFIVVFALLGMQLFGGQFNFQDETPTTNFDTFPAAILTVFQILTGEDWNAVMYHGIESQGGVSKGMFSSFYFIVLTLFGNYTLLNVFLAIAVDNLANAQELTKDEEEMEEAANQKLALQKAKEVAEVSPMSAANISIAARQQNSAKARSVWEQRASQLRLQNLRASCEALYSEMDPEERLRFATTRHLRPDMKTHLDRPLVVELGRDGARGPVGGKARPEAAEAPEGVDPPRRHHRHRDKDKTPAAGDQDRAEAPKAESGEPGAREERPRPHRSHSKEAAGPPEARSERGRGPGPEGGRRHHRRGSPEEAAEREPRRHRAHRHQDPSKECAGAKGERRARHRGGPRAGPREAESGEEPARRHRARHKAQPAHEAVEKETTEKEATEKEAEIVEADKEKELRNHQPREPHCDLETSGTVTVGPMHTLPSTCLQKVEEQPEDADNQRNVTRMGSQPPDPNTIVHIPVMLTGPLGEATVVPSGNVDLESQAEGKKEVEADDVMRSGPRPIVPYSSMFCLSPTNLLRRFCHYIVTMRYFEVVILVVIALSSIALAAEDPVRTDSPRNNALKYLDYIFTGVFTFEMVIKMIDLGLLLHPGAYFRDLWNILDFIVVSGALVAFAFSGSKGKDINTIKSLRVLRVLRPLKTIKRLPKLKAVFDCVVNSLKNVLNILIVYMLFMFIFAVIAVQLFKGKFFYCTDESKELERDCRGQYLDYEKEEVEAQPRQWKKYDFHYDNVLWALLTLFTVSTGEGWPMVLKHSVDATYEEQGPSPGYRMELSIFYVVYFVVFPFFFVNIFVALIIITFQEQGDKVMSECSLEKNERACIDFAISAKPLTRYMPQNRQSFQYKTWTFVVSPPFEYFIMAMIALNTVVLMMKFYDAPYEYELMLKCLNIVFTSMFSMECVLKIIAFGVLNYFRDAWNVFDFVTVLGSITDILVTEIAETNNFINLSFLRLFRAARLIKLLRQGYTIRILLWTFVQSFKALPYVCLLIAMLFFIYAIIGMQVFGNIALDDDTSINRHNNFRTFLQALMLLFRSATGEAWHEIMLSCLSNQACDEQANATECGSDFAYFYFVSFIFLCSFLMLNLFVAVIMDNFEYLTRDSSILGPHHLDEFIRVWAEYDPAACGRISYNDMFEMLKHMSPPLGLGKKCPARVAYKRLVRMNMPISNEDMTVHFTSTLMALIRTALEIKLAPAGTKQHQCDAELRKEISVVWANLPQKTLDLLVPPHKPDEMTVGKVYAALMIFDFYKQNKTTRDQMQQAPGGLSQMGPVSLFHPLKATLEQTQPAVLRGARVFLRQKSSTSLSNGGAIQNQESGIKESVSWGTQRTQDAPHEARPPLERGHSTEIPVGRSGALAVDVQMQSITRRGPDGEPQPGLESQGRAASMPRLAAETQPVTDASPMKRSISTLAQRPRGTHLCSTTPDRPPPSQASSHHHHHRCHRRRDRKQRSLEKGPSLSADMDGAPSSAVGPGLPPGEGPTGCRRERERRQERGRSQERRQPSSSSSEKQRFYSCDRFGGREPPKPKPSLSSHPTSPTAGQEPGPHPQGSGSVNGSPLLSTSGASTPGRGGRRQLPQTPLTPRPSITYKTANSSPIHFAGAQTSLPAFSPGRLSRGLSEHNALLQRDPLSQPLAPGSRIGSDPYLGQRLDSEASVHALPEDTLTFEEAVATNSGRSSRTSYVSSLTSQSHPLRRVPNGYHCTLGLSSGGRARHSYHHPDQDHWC", "T1 sequence (P54289 25-956 partner limits assumed)": "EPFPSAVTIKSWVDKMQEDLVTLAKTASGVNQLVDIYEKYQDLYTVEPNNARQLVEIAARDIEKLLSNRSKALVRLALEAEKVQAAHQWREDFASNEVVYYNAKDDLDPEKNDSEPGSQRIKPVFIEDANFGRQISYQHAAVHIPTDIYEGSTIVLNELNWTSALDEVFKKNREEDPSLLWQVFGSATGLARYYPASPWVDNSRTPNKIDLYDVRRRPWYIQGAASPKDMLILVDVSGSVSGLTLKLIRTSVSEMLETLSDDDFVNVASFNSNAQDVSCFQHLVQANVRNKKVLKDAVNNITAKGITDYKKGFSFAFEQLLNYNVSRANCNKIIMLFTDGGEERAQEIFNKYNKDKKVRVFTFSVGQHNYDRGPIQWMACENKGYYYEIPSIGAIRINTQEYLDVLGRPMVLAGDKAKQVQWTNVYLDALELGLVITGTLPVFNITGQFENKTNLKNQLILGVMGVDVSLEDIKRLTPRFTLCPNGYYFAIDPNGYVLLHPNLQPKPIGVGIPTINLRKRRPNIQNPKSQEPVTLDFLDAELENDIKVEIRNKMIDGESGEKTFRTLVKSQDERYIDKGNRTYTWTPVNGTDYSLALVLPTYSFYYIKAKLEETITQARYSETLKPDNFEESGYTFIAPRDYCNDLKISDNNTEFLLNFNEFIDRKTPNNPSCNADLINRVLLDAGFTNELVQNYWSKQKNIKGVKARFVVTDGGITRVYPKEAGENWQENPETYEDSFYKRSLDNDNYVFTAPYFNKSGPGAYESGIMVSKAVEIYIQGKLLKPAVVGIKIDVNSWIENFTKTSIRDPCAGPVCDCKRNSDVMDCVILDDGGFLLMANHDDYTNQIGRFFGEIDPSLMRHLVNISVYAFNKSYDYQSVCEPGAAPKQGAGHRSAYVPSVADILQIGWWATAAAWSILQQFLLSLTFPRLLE", "T1 sequence (P54289 957-1103 partner limits assumed)": "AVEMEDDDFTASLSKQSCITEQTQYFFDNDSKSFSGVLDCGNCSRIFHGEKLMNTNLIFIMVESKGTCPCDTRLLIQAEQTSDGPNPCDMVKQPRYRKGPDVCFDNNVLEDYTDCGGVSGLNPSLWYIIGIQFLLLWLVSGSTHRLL", "T1 sequence (P54284 whole entry partner)": "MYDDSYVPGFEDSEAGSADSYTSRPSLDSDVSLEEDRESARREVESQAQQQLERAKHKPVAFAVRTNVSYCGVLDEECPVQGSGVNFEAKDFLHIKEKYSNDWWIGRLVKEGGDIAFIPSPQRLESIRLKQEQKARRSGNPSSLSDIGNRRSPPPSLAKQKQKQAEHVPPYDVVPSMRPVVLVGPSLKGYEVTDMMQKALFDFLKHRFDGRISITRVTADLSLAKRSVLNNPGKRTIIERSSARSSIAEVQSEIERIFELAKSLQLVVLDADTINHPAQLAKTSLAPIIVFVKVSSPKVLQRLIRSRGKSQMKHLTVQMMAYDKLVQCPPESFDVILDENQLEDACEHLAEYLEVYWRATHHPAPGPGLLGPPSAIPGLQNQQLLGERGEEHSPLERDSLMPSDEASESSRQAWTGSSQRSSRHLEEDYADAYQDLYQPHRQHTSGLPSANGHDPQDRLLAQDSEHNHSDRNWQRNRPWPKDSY", "assay": "Inhibition of N-type calcium flux in IMR-32 cells (Indo-1 fluorescence, nitrendipine present)", "type": "cell-based", "details": "for IC50: IMR-32 cells, 5 μM nitrendipine, K+ depolarization; for inhibition at 10 µM / inhibition at 1 µM: IMR-32", "method_in_brief": "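Differentiated IMR-32 cells (7–13 days) were loaded with 5 μM Indo-1 AM, preincubated with compound for 10 min at 30° C, and depolarized with KCl/CaCl2 stimulation solution, with 5 μM nitrendipine blocking L-channels. Peak-minus-basal 400/490 nm emission ratio was plotted against drug concentration, and IC50 came from four-parameter logistic fits.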", "note": "*1 amine or outer side, *2 acyl side, *3 side chain or, on linkers, in order; H or OH if unused. Where a SMILES comes first, the peptide text is derived from it. The star is where a group is joined. Piperidide = C1CCN(*)CC1; CO = O=C([*:1])[*:2]; Bn = c1ccc(C*)cc1; OtBu = CC(C)(C)O*", "data": [{"compound": "O=C(NCCN1CCCCC1)[C@H](Cc1ccc(OCc2ccccc2)cc1)NC(=O)[C@H](Cc1ccc(O)cc1)NC(=O)N1CCCCCC1", "note": "[Example 156, [S-(R*,R*)]-Azepane-1-carboxylic acid [1-[2-(4-benzyloxy-phenyl)-1-(2-piperidin-1-ylethylcarbamoyl)-ethylcarbamoyl]-2-(4-hydroxy-phenyl)-ethyl]-amide]", "values": [{"measurement": "IC50", "value": 5300, "unit": "nM"}]}, {"compound": "CC(C)C[C@H](NC(=O)N1CCCCCC1)C(=O)NC(Cc1ccc(OCc2ccccc2)cc1)C(=O)N[C@@H]1CN2CCC1CC2", "note": "(stereo partly drawn) [Example 182, Azepane-1-carboxylic acid {(S)-1-[-1-[(S)-1-aza-bicyclo [2.2.2]-3-ylcarbamoyl]-2-(4-benzyloxy-phenyl)-ethylcarbamoyl]-3-methyl-butyl}-amide]", "values": [{"measurement": "IC50", "value": 7700, "unit": "nM"}]}, {"compound": "CSCC[C@H](NC(=O)N1CCCCCC1)C(=O)N[C@@H](Cc1ccc(OCc2ccccc2)cc1)C(=O)NC(C)(C)C", "note": "[Example 155, [S-(R*,R*)]-Azepane1-carboxylic acid {1-[2-(4-benzyloxy-phenyl)-1-tert-butylcarbamoyl-ethylcarbamoyl]-3-methylsulfanyl-propyl}-amide]", "values": [{"measurement": "IC50", "value": 2500, "unit": "nM"}]}, {"compound": "CC(C)C[C@H](NC(=O)N1CCCCCC1)C(=O)N[C@@H](Cc1ccc(OCc2ccccc2)cc1)C(=O)OCc1ccccc1", "note": "(relative stereo) [Example 14, [S-(R*,R*)]-2-{2-[(Azepane-1-carbonyl)-amino]-4-methyl-pentanoylamino}-3-(4-benzyloxy-phenyl)-propionic acid benzyl ester]", "values": [{"measurement": "Inhibition of Calcium Flux in IMR-32 Cells % Inhibition at 1 μM", "value": 45, "unit": "%"}]}, {"compound": "CC(C)C[C@H](NC(=O)N1CCOCC1)C(=O)N[C@@H](Cc1ccc(OCc2ccccc2)cc1)C(=O)N1CCCCC1", "note": "(relative stereo) [Example 151, [S(R*,R*)]-Morpholine-4-carboxylic acid {1-[1-(4-benzyloxy-benzyl)-2oxo-2-piperidin-1-ylethylcarbamoyl]-3-methyl-butyl}amide]", "values": [{"measurement": "IC50", "value": 4300, "unit": "nM"}]}, {"compound": "CC(C)C[C@H](NC(=O)Nc1cc(C(F)(F)F)cc(C(F)(F)F)c1)C(=O)N[C@@H](Cc1ccc(OCc2ccccc2)cc1)C(=O)OC(C)(C)C", "note": "(relative stereo) [Example 83, [S-(R*,R*)]-3-(4-Benzyloxy-phenyl)-2-{2-[3-(3,5-bis-trifluoromethyl-phenyl)-ureido]-4-methyl-pentanoylamino}-propionic acid tert-butyl ester]", "values": [{"measurement": "Inhibition of Calcium Flux in IMR-32 Cells % Inhibition at 1 μM", "value": 19, "unit": "%"}]}, {"compound": "CC(C)C[C@H](NC(=O)N1CCCCCC1)C(=O)N[C@@H](Cc1ccc(OCc2ccccc2)cc1)C(=O)NCC1CCNCC1", "note": "[Example 262, [S-(R*,R*)]-Azepane-1-carboxylic acid (1-{-2-(4-benzyloxy-phenyl)-1-[(piperidin-4-ylmethyl)-carbamoyl]-ethylcarbamoyl]-3-methyl-butyl}-amide]", "values": [{"measurement": "inhibition at 10 µM", "value": 17, "unit": "%"}, {"measurement": "IC50", "value": 51000, "unit": "nM"}]}, {"compound": "CC(C)C[C@H](NC(=O)N1CCCCC1)C(=O)N[C@@H](Cc1ccc(OCc2ccccc2)cc1)C(=O)OC(C)(C)C", "note": "[Example 33, [S-(R*,R*)]-3-(4-Benzyloxy-phenyl)-2-{4-methyl-2-[(piperidine-1-carbonyl)-amino]-pentanoylamino}-propionic acid tert-butyl ester] ({Piperidide-CO}-Leu-Tyr(Bn)-OtBu)", "values": [{"measurement": "inhibition at 1 µM", "value": 48, "unit": "%"}, {"measurement": "inhibition at 10 µM", "value": 79, "unit": "%"}, {"measurement": "IC50", "value": 2200, "unit": "nM"}]}, {"compound": "CC(C)C[C@H](NC(=O)NC1CCCCC1)C(=O)N[C@@H](Cc1ccc(OCc2ccccc2)cc1)C(=O)OC(C)(C)C", "note": "(relative stereo) [Example 56, [S-(R*,R*)]-3-(4-Benzyloxy-phenyl)-2-[2-(3-cyclohexyl-ureido)-4-methyl-pentanoylamino]propionic acid tert-butyl ester]", "values": [{"measurement": "Inhibition of Calcium Flux in IMR-32 Cells % Inhibition at 1 μM", "value": 24, "unit": "%"}, {"measurement": "Inhibition of Calcium Flux in IMR-32 Cells % Inhibition at 10 μM", "value": 56, "unit": "%"}]}, {"compound": "CC(C)C[C@H](NC(=O)N1CCCCCC1)C(=O)N[C@@H](Cc1ccc(OCc2ccccc2)cc1)C(=O)NCc1ccccc1", "note": "[Example 263, [S-(R*,R*)]-Azepane-1-carboxylic acid {1-[1-benzylcarbamoyl-2-(4-benzyloxy-phenyl)-ethylcarbamoyl]-3-methyl-butyl}-amide]", "values": [{"measurement": "IC50", "value": 1200, "unit": "nM"}]}, {"compound": "CC(=O)Nc1ccc(NC(=O)[C@H](Cc2ccc(OCc3ccccc3)cc2)NC(=O)[C@H](CC(C)C)NC(=O)N2CCCCCC2)cc1", "note": "(relative stereo) [Example 216, [S-(R*,R*)]-Azepane-1-carboxylic acid {1-[1-(4-acetylamino-phenylcarbamoyl)-2-(4-benzyloxy-phenyl)-ethylcarbamoyl]-3-methyl-butyl}-amide]", "values": [{"measurement": "Inhibition of Calcium Flux in IMR-32 Cells % Inhibition at 1 μM", "value": 16, "unit": "%"}, {"measurement": "Inhibition of Calcium Flux in IMR-32 Cells % Inhibition at 10 μM", "value": 37, "unit": "%"}]}, {"compound": "COc1cccc(C(=O)N[C@@H](CC(C)C)C(=O)N[C@@H](Cc2ccc(OCc3ccccc3)cc2)C(=O)OC(C)(C)C)c1", "note": "(relative stereo) [Example 96, [S-(R*,R*)]-3-(4-Benzyloxy-phenyl)-2-[2-(3-methoxy-benzoylamino)-4-methyl-pentanoylamino]-propionic acid tert-butyl ester]", "values": [{"measurement": "Inhibition of Calcium Flux in IMR-32 Cells % Inhibition at 1 μM", "value": 33, "unit": "%"}]}, {"compound": "CC(C)(C)NC(=O)[C@H](Cc1ccc(OCc2ccccc2)cc1)NC(=O)[C@H](CCCCC(=O)OC(C)(C)C)NC(=O)N1CCCCCC1", "note": "[Example 164, [S-(R*,R*)]-6-[(Azepane-1-carbonyl)-amino]-6-[2-(4-benzyloxy-phenyl)-1-tert-butylcarbamoyl-ethylcarbamoyl]-hexanoic acid tert-butyl ester]", "values": [{"measurement": "IC50", "value": 900, "unit": "nM"}]}, {"compound": "CCC(CO)NC(=O)[C@H](Cc1ccc(OCc2ccccc2)cc1)NC(=O)[C@H](CC(C)C)NC(=O)N1CCCCCC1", "note": "(relative stereo) [Example 226, [S-(R*,R*)]-Azepane-1-carboxylic acid {1-[2-(4-benzyloxy-phenyl)-1-(1-hydroxymethyl-propylcarbamoyl)-ethylcarbamoyl]-3-methyl-butyl}-amide]", "values": [{"measurement": "Inhibition of Calcium Flux in IMR-32 Cells % Inhibition at 1 μM", "value": 37, "unit": "%"}, {"measurement": "Inhibition of Calcium Flux in IMR-32 Cells % Inhibition at 10 μM", "value": 84, "unit": "%"}]}, {"compound": "CCOc1ccc(C(=O)N[C@@H](CC(C)C)C(=O)N[C@@H](Cc2ccc(OCc3ccccc3)cc2)C(=O)OC(C)(C)C)cc1", "note": "(relative stereo) [Example 91, [S-(R*,R*)]-3-(4-Benzyloxy-phenyl)-2-[2-(4-ethoxy-benzoylamino)-4-methyl-pentanoylamino]-propionic acid tert-butyl ester]", "values": [{"measurement": "Inhibition of Calcium Flux in IMR-32 Cells % Inhibition at 1 μM", "value": 34, "unit": "%"}, {"measurement": "Inhibition of Calcium Flux in IMR-32 Cells % Inhibition at 10 μM", "value": 48, "unit": "%"}]}, {"compound": "CC(C)C[C@H](NC(=O)N1CCCCCC1)C(=O)N[C@@H](Cc1ccc(OCc2ccccc2)cc1)C(=O)N1CCN(c2ccc(F)cc2)CC1", "note": "(relative stereo) [Example 240, [S-(R*,R*)]-Azepane-1-carboxylic acid (1-{1-(4-benzyloxy-benzyl)-2-[4-(4-fluoro-phenyl)-piperazin-1-yl]-2-oxo-ethylcarbamoyl}-3-methyl-butyl)-amide]", "values": [{"measurement": "Inhibition of Calcium Flux in IMR-32 Cells % Inhibition at 1 μM", "value": 63, "unit": "%"}, {"measurement": "Inhibition of Calcium Flux in IMR-32 Cells % Inhibition at 10 μM", "value": 86, "unit": "%"}, {"measurement": "IC50", "value": 750, "unit": "nM"}]}, {"compound": "CC(C)C[C@H](NC(=O)N1CCOCC1)C(=O)N[C@@H](Cc1ccc(OCc2ccccc2)cc1)C(=O)OC(C)(C)C", "note": "(relative stereo) [Example 34, [S-(R*,R*)]-3-(4-Benzyloxy-phenyl)-2(S)-{4-methyl-2(S)-[(morpholine-4-carbonyl)-amino]-pentanoylamino}-propionic acid tert-butyl ester]", "values": [{"measurement": "Inhibition of Calcium Flux in IMR-32 Cells % Inhibition at 1 μM", "value": 29, "unit": "%"}, {"measurement": "Inhibition of Calcium Flux in IMR-32 Cells % Inhibition at 10 μM", "value": 78, "unit": "%"}]}, {"compound": "CC(C)C[C@H](NC(=O)N1CCCCCC1)C(=O)N[C@@H](Cc1ccc(OCc2ccccc2)cc1)C(=O)c1cc[nH]n1", "note": "(relative stereo) [Example 261, [S-(R*,R*)]-Azepane-1-carboxylic acid {1-[2-(4-benzyloxy-phenyl)-1-(pyrazole-3-carbonyl)-ethylcarbamoyl]-3-methyl-butyl}-amide]", "values": [{"measurement": "IC50", "value": 2000, "unit": "nM"}]}, {"compound": "CC(C)C[C@H](NC(=O)N1CCCCCC1)C(=O)N[C@@H](Cc1ccc(OCc2ccccc2)cc1)C(=O)NC1CCN(Cc2ccccc2)CC1", "note": "[Example 271, [S-(R*,R*)]-Azepane-1-carboxylic acid {1-[2-(4-benzyloxy-phenyl)-1-(1-benzyl-piperidin-4-ylcarbamoyl)-ethylcarbamoyl]-3-methyl-butyl}-amide]", "values": [{"measurement": "inhibition at 1 µM", "value": 70, "unit": "%"}, {"measurement": "IC50", "value": 840, "unit": "nM"}]}, {"compound": "COc1ccc(NC(=O)N[C@@H](CC(C)C)C(=O)N[C@@H](Cc2ccc(OCc3ccccc3)cc2)C(=O)OC(C)(C)C)cc1", "note": "(relative stereo) [Example 68, [S-(R*,R*)]-3-(4-Benzyloxy-phenyl)-2-{2-[3-(4-methoxy-phenyl)-ureido]-4-methyl-pentanoylamino}-propionic acid tert-butyl ester]", "values": [{"measurement": "Inhibition of Calcium Flux in IMR-32 Cells % Inhibition at 1 μM", "value": 31, "unit": "%"}]}, {"compound": "CC(C)CC(NC(=O)N1CCCCCC1)C(=O)NC(Cc1ccc(OCc2ccccc2)cc1)C(=O)NCC(O)CN", "note": "(stereo not drawn) [Example 219, Azepane-1-carboxylic acid {1-[1-(3-amino-2-hydroxy-propylcarbamoyl)-2-(4-benzyloxy-phenyl)-ethylcarbamoyl]-3-methyl-butyl}-amide]", "values": [{"measurement": "inhibition at 1 µM", "value": 6, "unit": "%"}, {"measurement": "inhibition at 10 µM", "value": 23, "unit": "%"}]}, {"compound": "CC(C)C[C@H](NC(=O)N1CCCCCC1)C(=O)N[C@@H](Cc1ccc(N(Cc2ccccc2)Cc2ccccc2)cc1)C(=O)NC(C)(C)C", "note": "(relative stereo) [Example 133, [S-(R*,R*)]-Azepane-1-carboxylic acid {1-[2-(4-dibenzylamino-phenyl)-1-tert-butylcarbamoyl-ethylcarbamoyl]-3-methyl-butyl}-amide]", "values": [{"measurement": "Inhibition of Calcium Flux in IMR-32 Cells % Inhibition at 1 μM", "value": 54, "unit": "%"}, {"measurement": "Inhibition of Calcium Flux in IMR-32 Cells % Inhibition at 10 μM", "value": 72, "unit": "%"}]}, {"compound": "CC(C)C[C@H](NC(=O)N1CCCCCC1)C(=O)N[C@@H](Cc1ccc(OCc2ccccc2)cc1)C(=O)NCCN(C)C", "note": "[Example 175, [S-(R*,R*)]-Azepane-1-carboxylic acid {1-[2-(4-benzyloxy-phenyl)-1-(2-dimethylamino-ethylcarbamoyl)-ethylcarbamoyl]-3-methyl-butyl}-amide]", "values": [{"measurement": "IC50", "value": 2700, "unit": "nM"}]}]}
